{
  "source": "patent EP4796530A1",
  "about": "(Biocells (Beijing) Biotech Co., Ltd., priority 2023, dated 2025)",
  "key": {"[1]": {"target": "T1, NLRP3 (Homo sapiens, UniProt Q96P20)", "T1 sequence (Q96P20 whole entry)": "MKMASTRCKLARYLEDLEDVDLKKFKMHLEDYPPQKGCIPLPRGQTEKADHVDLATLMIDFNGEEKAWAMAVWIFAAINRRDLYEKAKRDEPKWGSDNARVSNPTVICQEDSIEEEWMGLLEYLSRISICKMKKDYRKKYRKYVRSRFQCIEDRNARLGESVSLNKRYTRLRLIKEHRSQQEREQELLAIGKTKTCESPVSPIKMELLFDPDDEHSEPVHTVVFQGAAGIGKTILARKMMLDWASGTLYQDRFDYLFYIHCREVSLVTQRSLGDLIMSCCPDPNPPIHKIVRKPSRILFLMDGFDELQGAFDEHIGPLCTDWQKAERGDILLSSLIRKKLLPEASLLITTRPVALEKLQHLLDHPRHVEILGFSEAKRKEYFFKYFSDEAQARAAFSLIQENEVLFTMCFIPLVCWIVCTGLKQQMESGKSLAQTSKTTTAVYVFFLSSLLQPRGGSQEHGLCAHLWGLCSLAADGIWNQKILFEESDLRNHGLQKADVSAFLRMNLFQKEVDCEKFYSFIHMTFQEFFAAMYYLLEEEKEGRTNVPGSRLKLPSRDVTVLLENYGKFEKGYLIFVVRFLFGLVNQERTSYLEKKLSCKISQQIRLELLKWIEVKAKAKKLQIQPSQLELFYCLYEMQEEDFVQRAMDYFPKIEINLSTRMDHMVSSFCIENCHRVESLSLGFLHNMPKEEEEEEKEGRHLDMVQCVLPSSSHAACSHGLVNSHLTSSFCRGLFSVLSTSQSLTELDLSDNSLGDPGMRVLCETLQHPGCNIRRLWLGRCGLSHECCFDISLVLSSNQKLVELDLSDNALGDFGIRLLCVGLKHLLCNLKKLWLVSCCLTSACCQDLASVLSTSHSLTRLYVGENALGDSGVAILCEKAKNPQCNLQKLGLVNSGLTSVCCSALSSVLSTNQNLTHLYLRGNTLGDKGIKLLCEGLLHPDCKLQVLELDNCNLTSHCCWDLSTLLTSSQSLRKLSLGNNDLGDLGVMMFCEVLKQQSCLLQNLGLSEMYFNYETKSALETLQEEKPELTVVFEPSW", "assay": "Inhibition curves (IC50) of canonical NLRP3 activation in healthy human whole blood, IL-1β release", "assay_type": "cell-based", "conditions": "LPS+5 µM Nig canonical activation model", "quoted_text": "10 mL of human whole blood was collected intravenously aseptically, and plated into a 96-well plate, with 198 µL per well. Then, 2 µL of 100× gradient dilutions of the example compounds at specified concentrations were added, immediately followed by the addition of 10 µL of 21 µg/mL LPS gradient dilution. 3 h later, nigericin with a working concentration of 5 µM or 1 mM ATP was added. After stimulation for 1 h, the whole blood was collected and centrifuged to collect the supernatant. IL-1β in the sample supernatant was detected by ELISA method.\nExperimental groups: a negative control group, an LPS-alone incubation control group, an LPS+Nig/ATP positive control group, and a 1 µM example compound experimental group.\n10 mL of human whole blood was collected intravenously aseptically. The anticoagulant heparin sodium was added preemptively into a 50 mL centrifuge tube. The collected whole blood was directly plated in a 96-well plate, with 198 µL per well. […] IL-1β in the sample supernatant was detected by ELISA method.\nTherefore, the relative change in the amount of IL-1β release may directly reflect NLRP3 inhibitory effect. The inhibitory effect of the compounds varies with different concentrations, and based on this, an inhibition curve can be constructed, and the inhibitory effect of the compounds were assessed by IC50."}, "[2]": {"target": "T1, NLRP3", "assay": "Inhibition curves (IC50) of canonical NLRP3 activation (LPS+Nig) in THP-1 cells, IL-1β release", "assay_type": "cell-based", "parameters": "host or cells: THP-1 human acute monocytic leukemia cell line, PMA-differentiated", "conditions": "THP-1 cell LPS+Nig activation model", "experimental": "Nig was purchased from Shanghai Yuanye Bio-Technology Co., Ltd., Cat. No.: S45490.\nThe cells were incubated overnight.\nTherefore, the relative change in the amount of IL-1β release may directly reflect NLRP3 inhibitory effect. The inhibitory effect of the compounds varies with different concentrations, and based on this, an inhibition curve can be constructed, and the inhibitory effects of the compounds were assessed by IC50."}, "[3]": {"target": "T2, NLRP3 (Mus musculus, UniProt Q8R4B8)", "T2 sequence (Q8R4B8 whole entry)": "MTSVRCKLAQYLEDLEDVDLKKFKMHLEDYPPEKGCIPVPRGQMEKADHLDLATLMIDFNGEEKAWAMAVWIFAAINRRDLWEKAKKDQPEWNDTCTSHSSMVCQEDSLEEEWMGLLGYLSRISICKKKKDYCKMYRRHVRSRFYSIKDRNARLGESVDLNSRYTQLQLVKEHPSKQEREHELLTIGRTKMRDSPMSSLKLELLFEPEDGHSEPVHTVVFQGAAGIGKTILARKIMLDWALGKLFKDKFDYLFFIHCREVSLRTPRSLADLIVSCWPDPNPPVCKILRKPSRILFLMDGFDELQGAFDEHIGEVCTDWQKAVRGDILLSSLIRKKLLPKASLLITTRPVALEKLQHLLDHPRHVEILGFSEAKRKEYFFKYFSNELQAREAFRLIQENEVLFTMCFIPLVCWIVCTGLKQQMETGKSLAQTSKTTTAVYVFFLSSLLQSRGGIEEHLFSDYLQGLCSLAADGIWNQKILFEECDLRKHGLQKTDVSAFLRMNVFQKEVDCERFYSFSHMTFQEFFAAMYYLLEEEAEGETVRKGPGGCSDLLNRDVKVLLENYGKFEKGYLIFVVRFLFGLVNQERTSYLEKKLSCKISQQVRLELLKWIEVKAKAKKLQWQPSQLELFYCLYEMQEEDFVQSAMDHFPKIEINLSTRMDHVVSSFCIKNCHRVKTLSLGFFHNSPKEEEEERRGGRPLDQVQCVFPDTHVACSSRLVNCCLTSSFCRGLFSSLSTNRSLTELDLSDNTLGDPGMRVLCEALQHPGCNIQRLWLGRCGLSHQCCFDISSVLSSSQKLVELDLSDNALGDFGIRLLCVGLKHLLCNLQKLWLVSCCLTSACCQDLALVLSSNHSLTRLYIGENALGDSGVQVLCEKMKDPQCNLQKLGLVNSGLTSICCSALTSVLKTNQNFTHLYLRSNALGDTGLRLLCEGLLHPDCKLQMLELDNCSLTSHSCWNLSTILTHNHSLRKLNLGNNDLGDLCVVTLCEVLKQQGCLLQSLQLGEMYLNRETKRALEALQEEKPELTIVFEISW", "assay": "LPS-induced sepsis model in mice: serum IL-1β and survival rate", "assay_type": "in vivo, C57BL/6 mice", "parameters": "tissue National Institutes for Food and Drug Control; host or cells: C57BL/6J mice in vivo (serum IL-1β in A7, ascites IL-1β in A8)", "conditions": "30 mg/kg intraperitoneally 1 h before 20 mg/kg LPS", "experimental": "Intraperitoneal injection of 20 mg/kg LPS can induce a septic state in C57BL/6 mice and cause a significant increase in serum IL-1β after injection. Example compounds were intraperitoneally injected preemptively to study the effects on IL-1β increase and mouse survival rate. LPS was purchased from Sigma, Cat. No. L2630; and C57BL/6J male mice aged 6-8 weeks were purchased from National Institutes for Food and Drug Control.\nExperimental groups: a sham group, a model group, and an example compound dosing group.\n30 mg/kg of example compounds were injected intraperitoneally. 1 h later, 20 mg/kg LPS was injected intraperitoneally into the model group and the example compound dosing group for modeling, and the control solvent was injected into the sham group. Serum samples were collected from a batch of mice at 2.5 h and 4 h after modeling, and the levels of IL-1β were analyzed. For another batch of mice, the survival rate of the mice was calculated after modeling."}, "[4]": {"target": "T2, NLRP3", "assay": "MSU-induced mouse peritonitis model: IL-1β in ascites", "assay_type": "in vivo, C57BL/6J female mice", "parameters": "tissue National Institutes for Food and Drug Control; host or cells: C57BL/6J mice in vivo (serum IL-1β in A7, ascites IL-1β in A8)", "conditions": "oral gavage; LPS 2 h later, MSU after another 2 h, ascites 30 min later", "quoted_text": "Intraperitoneal injection of LPS and monosodium urate crystals (MSU) in mice can induce the activation of NLRP3 and release of large amounts of IL-1β. […] LPS was purchased from Sigma, Cat. No. L2654. MSU was purchased from Bide Pharmatech Co., Ltd., Cat. No. BD367417. C57BL/6J female mice aged 8 weeks were purchased from National Institutes for Food and Drug Control.\nThe mice were administered the example compounds via oral gavage. […] Ascites was collected 30 min later, and then IL-1β protein detection was performed on the ascites.\nExperimental groups: a model group, and an example compound dosing group."}},
  "data": [
    {"smiles": "CN(C)Cc1cccc(S(=O)(=O)NC(=O)Nc2c3c(cc4c2CCC4)CCC3)c1N", "note": "[Example 19, 2-amino-3-((dimethylamino)methyl)-N-((1,2,3,5,6,7-hexahydro-s-indacen-4-yl)carbamoyl)benzenesulfonamide]", "values": [
      {"measurement": "IC50", "setting": "[1]", "result": 1270, "unit": "nM"},
      {"measurement": "IC50", "setting": "[2]", "result": 278, "unit": "nM"},
      {"measurement": "mouse survival rate compared with the model group", "setting": "[3]", "result": "significantly improved"},
      {"measurement": "survival rate compared with MCC950", "setting": "[3]", "result": "significantly further improved"},
      {"measurement": "IL-1β level in serum compared with the model group", "setting": "[3]; 2.5 h after modeling", "result": "significant differences"},
      {"measurement": "IL-1β level in serum compared with the model group", "setting": "[3]; 4 h after modeling", "result": "significant differences"},
      {"measurement": "level of IL-1β in ascites compared with the model group", "setting": "[4]", "result": "significantly inhibited"}
    ]}
  ]
}
